According to US5340833A, “Urokinase inhibitors” (Eisai Co., Ltd., priority 1992, dated 1994):
Counter-ions that a name gives are not always drawn.

Molecular target: T1, human high molecular weight urokinase (Homo sapiens, UniProt P00749)
T1 construct: human high molecular weight urokinase; purchased American Diagnostica, Greenwich, Conn
Experiment: Urokinase Direct Assay
Format: biochemical
Settings: read-out: uPA Direct: percentage of residual urokinase activity relative to inhibitor-free controls; heading: uPA Direct: percentage of residual urokinase activity relative to inhibitor-free controls; inhibitor concentration of 1 mM
Method: (i) A direct chromogenic assay in which urokinase cleaves a synthetic tripeptide p-nitroanilide (pNA) urokinase substrate.
Incubations were carried out at 37° C. for approximately 2 hours or until adequate yellow color developed. Color was quantitated by measuring absorbance at 405 nm (A405) using a Titertek Multiskan MCC/340 MK II microtiter plate spectrophotometer.

N=C(N)c1cc2cc(-c3cccnc3)ccc2s1 [Compound 125, 5-(Pyrid-3-yl)benzo[b]thiophene-2-carboxamidine hydrochloride] was tested, and the residual urokinase activity at 1000 µM was 3.6%.
Compound COc1c(Br)cc(Br)c2sc(C(=N)N)cc12 [Compound 311, 5,7-Dibromo-4-methoxybenzo[b]thiophene-2-carboxamidine hydrochloride] has a residual urokinase activity at 1000 µM of 18%.
CCC(/C=C/c1cccc2sc(C(=N)N)cc12)CC [Compound 28, 4-(E-3-ethylpent-1-enyl)benzo[b]thiophene-2-carboxamidine hydrochloride] gave a residual urokinase activity at 1000 µM of 0.46%.
N=C(N)c1sc2ccccc2c1N [Compound 306, 3-Aminobenzo[b]thiophene-2-carboxamidine hydrochloride] was tested, and the residual urokinase activity at 1000 µM was 41%.
In the case of COc1ccc(-c2cccc3sc(C(=N)N)cc23)cc1 [Compound 45, 4-(4-Methoxyphenyl)benzo[b]thiophene-2-carboxamidine hydrochloride], the residual urokinase activity at 1000 µM was 6%.
C=C(C)c1ccc2sc(C(=N)N)cc2c1 [Compound 115, 5-(1-Methylethenyl)benzo[b]thiophene-2-carboxamidine hydrochloride] was tested, and the residual urokinase activity at 1000 µM was 1.2%.
CCC(C)Cc1cccc2sc(C(=N)N)cc12 (racemic) [Compound 11, 4-([R/S]-2-Methylbutyl)benzo[b]thiophene-2-carboxamidine hydrochloride] gave a residual urokinase activity at 1000 µM of 2.3%.
Compound N=C(N)c1cc2c(/C=C/CCCO)cccc2s1 [Compound 32, 4-(E-5-Hydroxypent-1-enyl)benzo[b]thiophene-2-carboxamidine hydrochloride] has a residual urokinase activity at 1000 µM of 0.67%.
Work on CCc1ccc2sc(C(=N)N)cc2c1 [Compound 106, 5 -Ethylbenzo[b]thiophene-2-carboxamidine hydrochloride] yielded a residual urokinase activity at 1000 µM of 3.6%.
Compound N=C(N)c1cc2cc(C=O)ccc2s1 [Compound 130, 5-Formylbenzo[b]thiophene-2-carboxamidine hydrochloride] has a residual urokinase activity at 1000 µM of 6.8%.
With N=C(N)c1cc2cc(C(F)(F)F)ccc2s1 [Compound 129, 5-(Trifluoromethyl)benzo[b]thiophene-2-carboxamidine hydrochloride] the residual urokinase activity at 1000 µM was 8.2%.
Work on CCCCCCCC/C=C/c1cccc2sc(C(=N)N)cc12 [Compound 31, 4-(E-Dec-1-enyl)benzo[b]thiophene-2-carboxamidine hydrochloride] yielded a residual urokinase activity at 1000 µM of 5.2%.
Compound N=C(N)c1cc2c(F)cc(Br)cc2s1 [Compound 308, 4-Fluoro-6-bromobenzo[b]thiophene-2-carboxamidine hydrochloride] has a residual urokinase activity at 1000 µM of 14.5%.
COc1ccc(F)c2cc(C(=N)N)sc12 [Compound 310, 4-Fluoro-7-methoxybenzo[b]thiophene-2-carboxamidine hydrochloride] was tested, and the residual urokinase activity at 1000 µM was over 90%.
In the case of CCCCc1ccc2sc(C(=N)N)cc2c1 [Compound 108, 5-Butylbenzo[b]thiophene-2-carboxamidine hydrochloride], the residual urokinase activity at 1000 µM was 3.4%.
In the case of N=C(N)c1csc2ccccc12 [Compound 316, Benzo[b]thiophene-3-carboxamidine hydrochloride], the residual urokinase activity at 1000 µM was 80%.
N=C(N)Nc1cc2ccccc2s1 [Compound 319, 2-Guanidinobenzo[b]thiophene hydrochloride] showed a residual urokinase activity at 1000 µM of over 90%.
With N=C(N)c1cc2cccc(I)c2s1 [Compound 302, 7-Iodobenzo[b]thiophene-2-carboxamidine hydrochloride] the residual urokinase activity at 1000 µM was 10.8%.
N=C(N)c1cc2cc(CCO)ccc2s1 [Compound 113, 5-(2-Hydroxyethyl)benzo[b]thiophene-2-carboxamidine hydrochloride] was tested, and the residual urokinase activity at 1000 µM was 2.9%.
For N=C(N)c1cc2c(Br)cccc2s1 [Compound 4, 4-Bromobenzo[b]thiophene-2-carboxamidine hydrochloride], the residual urokinase activity at 1000 µM was 0.8%.
CCC(C)=Cc1cccc2sc(C(=N)N)cc12 [Compound 21, 4-(E/Z-2-Methylbut-1-enyl)benzo[b]thiophene-2-carboxamidine hydrochloride] gave a residual urokinase activity at 1000 µM of 1.1%.
